In patent US12377069B2, “Compounds, compositions, methods of using, and methods for preparing compounds” (UNIVERSITY OF LOUISVILLE RESEARCH FOUNDATION, INC., priority 2018, dated 2025):

What was measured:
HT29 cells = assay: AhR/Cyp1A1 siRNA knockdown and Cyp1A1 CRISPR/Cas9 deletion; type: cell-based, human; conditions: 24 h; for Cldn4 or NQO1 in Cyp1A1 deleted cells: CRISPR/Cas9, 50 μM; for Cldn4 induction in AhR or Cyp1A1 knockdown cells: siRNA, 50 μM
Experimental: Small interfering RNA (siRNA) mediated knockdown experiment: The AhR siRNA (SR300136) and Cyp1A1 siRNA (SR301093) was purchased from Origene. For knockdown experiments, HT29 cells (0.5×10^6 cells/well) were plated in 6 well plate and grown for 24 hr. The AhR, Cyp1A1 and control-siRNA was transfected into HT29 cells using Lipofectamine® RNAiMAX reagent (ThermoFisher Scientific) as per instruction given. After 24 hr of transfections, cell were induced with vehicle (0.01% DMSO), UroA (50 μM) and UAS03 (50 μM) for 24 hr. After treatment with inducers, cells were lysed using RIPA buffer and total protein was used to analyse the expression of AhR, Cyp1A1 and cldn4 by western blot.
Cyp1A1 deletion by CRISPR/Cas9 method: HT29 cells (1.5×10^5) were plated in 6-well in antibiotic free standard growth medium 24 h prior to transfection. At 60% confluency cells, cell were co-transfected with 2 μg each of CRISPR/Cas9 KO Plasmid (sc-400511-KO-2; Santa cruz) and HDR Plasmid (sc-400511-HDR-2; Santa cruz) using UltraCruz® Transfection Reagent (sc-395739; Santa Cruz). Medium was replaced with selective medium (containing 4 μg/mL puromycin) 96 hr post transfection. Transfection was confirmed with fluorescence microscopy and western blot (CYP1A1). The double positive cells for GFP and RFP were sorted using MoFlo XDP sorting instrument (Beckman Coulter). The deletion of Cyp1A1 in these sorted was confirmed by Western blots. These cells were then plated in 6-well plate for in standard medium for evaluating the effect of UroA/UAS03 on Cldn4 expression. After 24 hr of UroA/UAS03 treatment cells were harvested for protein and Cldn4 expression was investigated along with normal HT29 cells.

[1] = system: mouse bone marrow derived macrophages (BMDMs); assay: LPS-induced IL-6 and TNF-α in BMDM; type: cell-based; conditions: for LPS-induced IL-6 production in AhR^−/− macrophages: AhR^−/− BMDM, up to 30 NM; for LPS induced IL-6 and TNF-α: 0.1-50 μM; for IL-6 in Nrf2^−/− (fold reduction; TNBS model and LPS-induced BMDM): Nrf2^−/− vs WT
Experimental: Measurements of IL-6 and TNF-α in BMDM: BMDM were plated in 96 (10,000 cells/well) and 12 wells (0.1×10^6 cells/well) plate for ELISA and RNA isolation. To evaluate the anti-inflammatory properties, BMDMs were stimulated with E. coli-derived lipopolysaccharides (LPS; 055:B5; Sigma) at 50 ng/mL concentration for six hours alone or in combination with UroA or UAS03 at indicated concentrations (0.01, 0.1, 1, 10, 25, 50 μM) in quadruplicates. For cytokine production via ELISA, the supernatant was collected and centrifuged at 10,000×g for 10 min at 4° C. to pellet down any cell and cytokines were quantified using IL-6 and TNF-α specific ELISA kit (Biolegend) following manufacturer's instruction.
Screening for anti-inflammatory activities: Mouse bone marrow derived macrophages (BMDM) were plated in 96 wells plate for ELISA. To evaluate the anti-inflammatory properties, BMDMs were stimulated with E. coli-derived lipopolysaccharides (LPS; 055:B5; Sigma) at 50 ng/mL concentration for six hours alone or in combination with compounds at indicated concentrations in quadruplicates. For cytokine production via ELISA, the supernatant was collected and centrifuged at 12,000 rpm for 10 min at 4° C. to pellet down any cell and cytokines were quantified using IL-6 and TNF-α specific ELISA kit (Biolegend) following manufacturer's instruction. LPS induced IL-6 or TNF-α considered as 100%.

[2] = system: C57BL/6, Nrf2^−/− and AhR^−/− mice; assay: Colon protein/mRNA expression after 7 days of oral treatment; type: in vivo, mouse; conditions: for AhR expression in colons of treated mice / Nrf2 and HO1 in the colons of wild type mice / expression of Cldn4 in the colons of mice: oral 20 mg/kg daily, 7 days; for Nrf2 and tight junction proteins (Cldn4, NQO1, Ocln, ZO1 and TJP3) in WT mice / Nrf2 and tight junction proteins in Nrf2^−/− and AhR^−/− mice: orally 20 mg/kg daily, seven days
Experimental: Immunoblots (Western blots): The total protein lysates were collected either from colon tissue/cells using radioimmunoprecipitation assay (RIPA) buffer (Sigma-Aldrich, USA) and quantified using BCA protein quantification kit (Thermo Scientific) as per instructional manual. Total protein (20-50 μg) of was resolved on NuPAGE™ 4-12% Bis-Tris gel (Novex Life technologies) and transferred to polyvinylidene difluoride membrane (0.22 μm pore; Millipore, USA). After blocking with 5% (w/v) skim milk powder (containing 1×TBS) for 1 h, the membrane was then incubated with respective antibodies at 4° C. overnight (dilutions of respective antibodies is given in Table A1). Next day, respective secondary antibody conjugated with Horseradish peroxidase were probed and the chemiluminescent substrate was used to detect the protein bands (ImageQuant LAS 4000). Densitometry analysis of bands were done using ImageJ software. Antibodies for Cldn4, Ocln, Cldn1, Cyp1A1, AhR, HO1, NQO1, Keap1, β-actin and Lamin B were purchased from Santa Cruz Biotechnologies (USA) and Nrf2 from Novus Biologicals (USA).
Tissue processing for RNA and protein analysis: Mice were treated with as described in results section. Mice were euthanized with CO2 asphyxiation followed by cervical dislocation. Colon was dissected out and luminal contents were flushed out with cold PBS (containing PMSF and Sodium orthvandate). Small portion of colon was snap frozen in liquid nitrogen and stored at −80° C. for RNA analysis. For preparation of protein samples, colon was opened longitudinally and mucosa was scraped in ice-cold 1×PBS using pre-chilled glass slide and centrifuged at 300×g for 10 min at 4° C. Supernatant was discarded and pellet was suspended in RIPA buffer (containing 1× protease inhibitor) and vortexed at high speed. After 30 min incubation on ice, samples were centrifuged at 13,000×g for 20 min at 4° C. Supernatant was collected and protein was quantified using BCA protein quantification kit. The lysates were used appropriately for Western blots.

colon explants = assay: Colon explant culture; set-up: species or system mouse; conditions: 50 μM, 24 h
Experimental: Colon explant culture: Colon tissue pieces (0.5-1 cm length) from wild type (C57BL/6) or Nrf2^−/− or AhR^−/− mice were cultured in triplicates for 24 h in complete DMEM-high glucose medium (supplemented with 10% fetal bovine serum, 1× penicillin-streptomycin solution) in a humidified atmosphere in the presence of vehicle (0.01% DMSO), UroA (50 μM) or UAS03 (50 μM). The tissues were processed for protein preparation (tissue lysates with RIPA plus buffer) or total RNA isolation. These tissue lysates or RNA were used to determine the expression of Nrf2, Cldn4 and AhR.

SMILES | Cldn4 or NQO1 in Cyp1A1 deleted cells (HT29 cells) | Cldn4 induction in AhR or Cyp1A1 knockdown cells (HT29 cells) | LPS-induced IL-6 production in AhR^−/− macrophages [1] | anti-inflammatory activities (LPS-induced IL-6 and TNF-α), analogue screening ([1]; LPS 50 ng/mL, six hours, compared UroA) | concentrations showing anti-inflammatory activities ([1]; LPS 50 ng/ml, 6 h) | LPS induced IL-6 and TNF-α ([1]; LPS 50 ng/ml, 6 h) | IL-6 in Nrf2^−/− (fold reduction; TNBS model and LPS-induced BMDM) [1] | AhR expression in colons of treated mice [2] | Nrf2 and HO1 in the colons of wild type mice [2] | expression of Cldn4 in the colons of mice [2] | Nrf2 and tight junction proteins (Cldn4, NQO1, Ocln, ZO1 and TJP3) in WT mice [2] | Nrf2 and tight junction proteins in Nrf2^−/− and AhR^−/− mice [2] | Cldn4 and NQO1 in Nrf2^−/− and AhR^−/− colon explants (colon explants) | expression of Nrf2, NQO1 and Cldn4 in WT colon explants (colon explants)
Oc1ccc2c(c1)COc1cc(O)ccc1-2 [UAS03, 6H-benzo[c]chromene-3,8-diol] | did not appear to upregulate | does not appear to induce Cldn4 | did not block | effective anti-inflammatory compounds | nano molar concentrations | decreased | reduced IL-6 in Nrf2^−/− similar to WT | upregulated | upregulated | elevated expression | upregulated | did not appear to induce | did not appear to induce | induced the expression
O=c1oc2cc(O)ccc2c2ccc(O)cc12 [UroA, 3,8-dihydroxy-6H-dibenzo[b,d]pyran-6-one] | did not appear to upregulate | does not appear to induce Cldn4 | did not block |  |  | decreased | reduced IL-6 in Nrf2^−/− similar to WT | upregulated | upregulated | elevated expression | upregulated | did not appear to induce | did not appear to induce | induced the expression
